According to paper PMC13622972 (Antiviral research, 2022):
pIC50: −log10 of the molar value. Positions of bridges follow the written chain, without caps; N, C: chain ends. Residues, ends and D or L forms follow the SMILES beside them.

Key:
[1] = test system: pseudotyped Ebola virus (EBOV)
[2] = test system: wild type Ebola virus Zaire; conditions: 36 h
[3] = test system: pseudotyped Marburg virus (MARV)
[4] = test system: pseudotyped Vesicular stomatitis virus (VSV); format: cell-based

Structure (SMILES) | pIC50 [1] | pIC50 [2] | pIC50 [3] | Activity against the pseudotyped VSV virus [4]
CC(C)[C@@H]1NC(=O)[C@H](Cc2ccccc2)NC(=O)[C@H](Cc2ccccc2)NC(=O)[C@H](CC(=O)O)NC(=O)[C@H](CC(=O)O)NC(=O)CNC(=O)[C@H](CCCCN)NC(=O)[C@@H](NC(=O)[C@@H](N)Cc2c[nH]cn2)CSSC[C@@H](C(=O)N[C@@H](Cc2ccc(O)cc2)C(=O)O)NC(=O)[C@H](C)NC(=O)[C@H](Cc2ccc(O)cc2)NC1=O [erp1c, HCKGDDFFVYACY] (H-HCKGDDFFVYACY-OH; disulfide 2-12 (inferred); N-terminus and C-terminus assumed) | 4.91 | 4.98 | 4.55 | no activities
CC(C)[C@@H]1NC(=O)[C@H](Cc2ccccc2)NC(=O)CNC(=O)[C@H](CO)NC(=O)[C@@H](N)CSSC[C@@H](C(=O)O)NC(=O)[C@H](Cc2c[nH]c3ccccc23)NC(=O)[C@H](CCC(=O)O)NC1=O [m191abc, CSGFVEWC] (H-CSGFVEWC-OH; disulfide 1-8 (inferred); N-terminus and C-terminus assumed) | 4.43 | – | 5.07 | no activities
C[C@@H](O)[C@@H]1NC(=O)CNC(=O)[C@@H](N)CSSC[C@@H](C(=O)O)NC(=O)[C@H](Cc2ccc(O)cc2)NC(=O)[C@H](Cc2ccc(O)cc2)NC(=O)[C@H](Cc2ccc(O)cc2)NC(=O)[C@H](Cc2ccccc2)NC1=O [m78abc, CGTFYYYC] (H-CGTFYYYC-OH; disulfide 1-8 (inferred); N-terminus and C-terminus assumed) | 4.79 | – | 4.90 | no activities
